Data as given in patent publication US6620828B2, “Thiazole compounds and pharmaceutical compositions for inhibiting protein kinases and methods for their use” (Agouron Pharmaceuticals, Inc., priority 1999, dated 2003).

Columns and labels:
Type in all cases: biochemical
[1] = target: T1, CDK4/Cyclin D3 complex (Homo sapiens, UniProt P11802); test: CDK4/Cyclin D assay; details: for inhibition at 100 µM: at 100 (printed 100 or 100 μM)
T1 construct: made in house; host or cells: insect cells co-infected with baculovirus vectors
T1 sequence (P11802 whole entry): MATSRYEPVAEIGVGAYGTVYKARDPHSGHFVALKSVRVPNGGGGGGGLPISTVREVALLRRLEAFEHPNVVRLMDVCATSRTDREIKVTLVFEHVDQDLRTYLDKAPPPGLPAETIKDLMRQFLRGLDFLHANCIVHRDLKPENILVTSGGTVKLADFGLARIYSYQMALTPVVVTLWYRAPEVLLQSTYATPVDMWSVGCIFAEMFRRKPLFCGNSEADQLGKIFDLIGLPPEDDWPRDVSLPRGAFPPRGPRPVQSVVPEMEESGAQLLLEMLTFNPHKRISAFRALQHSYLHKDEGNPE
T1 sequence (P30281 whole entry partner): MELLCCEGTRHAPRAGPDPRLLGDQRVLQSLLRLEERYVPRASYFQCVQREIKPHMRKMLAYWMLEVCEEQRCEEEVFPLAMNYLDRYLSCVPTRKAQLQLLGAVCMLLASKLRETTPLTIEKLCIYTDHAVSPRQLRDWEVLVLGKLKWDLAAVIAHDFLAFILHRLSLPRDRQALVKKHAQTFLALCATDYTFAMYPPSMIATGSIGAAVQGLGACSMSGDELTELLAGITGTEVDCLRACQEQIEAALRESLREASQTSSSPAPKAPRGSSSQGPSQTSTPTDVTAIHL
Method: CDK4/Cyclin D Construct for Assay: A complex of human CDK4 and cyclin D3, or a complex of cyclin DI and a fusion protein of human CDK4 and glutathione-S-transferase (GST-CDK4), was purified using traditional biochemical chromatographic techniques from insect cells that had been co-infected with the corresponding baculovirus expression vectors.
(§1) CDK2/Cyclin A and CDK4/Cyclin D Assays
(§2) Cyclin-dependent kinase activity was measured by quantifying the enzyme-catalyzed, time-dependent incorporation of radioactive phosphate from [^32P]ATP into a recombinant fragment of the retinoblastoma protein. Unless noted otherwise, assays were performed in 96-well plates in a total volume of 50 μL, in the presence of 10 mM HEPES (N-[2-hydroxyethyl]piperazine-N′-[2-ethanesulfonic acid]) (pH 7.4), 10 mM MgCl2, 25 μM adenosine triphosphate (ATP), 1 mg/mL ovalbumin, 5 μg/mL leupeptin, 1 mM dithiothreitol, 10 mM β-glycerophosphate, 0.1 mM sodium vanadate, 1 mM sodium fluoride, 2.5 mM ethylene glycol-bis(β-aminoethyl ether)-N,N,N′N′-tetraacetic acid (EGTA), 2% (v/v) dimethylsulfoxide, and 0.03-0.2 μCi [^32P]ATP. The substrate (0.3-0.5 μg) was purified recombinant retinoblastoma protein fragment (Rb) (residues 386-928 of the native retinoblastoma protein; 62.3 kDa, containing the majority of the phosphorylation sites found in the native 106-kDa protein, as well as a tag of six histidine residues for ease of purification). Reactions were initiated with CDK2 (150 nM CDK2/Cyclin A complex) or CDK4 (50 nM CDK4/Cyclin D3 complex), incubated at 30° C., and terminated after 20 minutes by the addition of ethylenediaminetetraacetic acid EDTA) to 250 mM. The phosphorylated substrate was then captured on a nitrocellulose membrane using a 96-well filtration manifold, and unincorporated radioactivity was removed by repeated washing with 0.85% phosphoric acid. Radioactivity was quantified by exposing the dried nitrocellulose membranes to a phosphorimager. Apparent Ki values were measured by assaying enzyme activity in the presence of different compound concentrations and subtracting the background radioactivity measured in the absence of enzyme. The kinetic parameters (kcat, Km for ATP) were measured for each enzyme under the usual assay conditions by determining the dependence of initial rates on ATP concentration. The data were fit to an equation for competitive inhibition using Kaleidagraph (Synergy Software), or were fit to an equation for competitive tight-binding inhibition using the software KineTic (BioKin, Ltd.). Measured Ki values for known inhibitors against CDK4 and CDK2 agreed with published IC50 values. The specific activity of CDK4 was the same whether complexed to full-length cyclin D3 or the truncated Cyclin D3 construct; both complexes also yielded very similar Ki values for selected inhibitors.

[2] = target: CDK2/Cyclin A complex (Homo sapiens, UniProt P24941); test: CDK2/Cyclin A assay; set-up: CDK2^c: concentration or dose not given beside the values; details: for CDK2^c: Table A combinatorial examples, footnote c not given
From the text: CDK2/Cyclin A Construct for Assay: CDK2 was purified using published methodology (Rosenblatt et al., J. Mol. Biol., 230, 1317-1319 (1993)) from insect cells that had been infected with a baculovirus expression vector. Cyclin A was purified from E. coli cells expressing full-length recombinant cyclin A, and a truncated cyclin A construct was generated by limited proteolysis and purified as described previously (Jeffrey et al., Nature, 376, 313-320 (Jul. 27, 1995)).
as §1, §2

[3] = target: T2, phosphorylated VEGF-R2Δ50 (FLVK-P) (Homo sapiens, UniProt P35968, DEL940-989/E990V); test: VEGF-R2 coupled spectrophotometric (FLVK-P) assay; details: Table 3; at 1 μM
T2 construct: VEGF-R2Δ50 contains residues 806-939 and 990-1171; made in house; host or cells: baculovirus/insect cells
T2 sequence (P35968 with tags, fused parts or gaps DEL940-989/E990V limits assumed): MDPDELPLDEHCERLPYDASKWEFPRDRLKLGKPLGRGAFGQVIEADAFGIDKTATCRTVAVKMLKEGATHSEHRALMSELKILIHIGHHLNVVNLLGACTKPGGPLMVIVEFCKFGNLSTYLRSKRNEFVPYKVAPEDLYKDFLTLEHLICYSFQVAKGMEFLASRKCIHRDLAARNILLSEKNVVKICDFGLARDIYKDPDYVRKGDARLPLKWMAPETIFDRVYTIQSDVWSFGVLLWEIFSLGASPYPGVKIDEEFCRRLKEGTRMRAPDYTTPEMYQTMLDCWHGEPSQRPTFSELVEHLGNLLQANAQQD
From the text: VEGF-R2 Construct for Assay: This construct determines the ability of a test compound to inhibit tyrosine kinase activity. A construct (VEGF-R2Δ50) of the cytosolic domain of human vascular endothelial growth factor receptor 2 (VEGF-R2) lacking the 50 central residues of the 68 residues of the kinase insert domain was expressed in a baculovirus/insect cell system. Of the 1356 residues of full-length VEGF-R2, VEGF-R2Δ50 contains residues 806-939 and 990-1171, and also one point mutation (E990V) within the kinase insert domain relative to wild-type VEGF-R2. Autophosphorylation of the purified construct was performed by incubation of the enzyme at a concentration of 4 μM in the presence of 3 mM ATP and 40 mM MgCl2 in 100 mM Hepes, pH 7.5, containing 5% glycerol and 5 mM DTT, at 4° C. for 2 h. […] See Parast et al., Biochemistry, 37, 16788-16801 (1998).
Coupled Spectrophotometric (FLVK-P) Assay
The production of ADP from ATP that accompanies phosphoryl transfer was coupled to oxidation of NADH using phosphoenolpyruvate (PEP) and a system having pyruvate kinase (PK) and lactic dehydrogenase (LDH). The oxidation of NADH was monitored by following the decrease of absorbance at 340 nm (e340=6.22 cm^−1 mM^−1) using a Beckman DU 650 spectrophotometer. Assay conditions for phosphorylated VEGF-R2Δ50 (indicated as FLVK-P in the tables below) were the following: 1 mM PEP; 250 μM NADH; 50 units of LDH/mL; 20 units of PK/mL; 5 mM DTT; 5.1 mM poly(E4Y1); 1 mM ATP; and 25 mM MgCl2 in 200 mM Hepes, pH 7.5. Assay conditions for unphosphorylated VEGF-R2Δ50 (indicated as FLVK in the tables) were the following: 1 mM PEP; 250 μM NADH; 50 units of LDH/mL; 20 units of PK/mL; 5 mM DTT; 20 mM poly(E4Y1); 3 mM ATP; and 60 mM MgCl2 and 2 mM MnCl2 in 200 mM Hepes, pH 7.5. Assays were initiated with 5 to 40 nM of enzyme. Ki values were determined by measuring enzyme activity in the presence of varying concentrations of test compounds. The data were analyzed using Enzyme Kinetic and Kaleidagraph software.

[4] = target: T3, FL-CHK1 (Homo sapiens, UniProt O14757); test: CHK1 assay; set-up: CHK1^b: unit not given here; details: for CHK1^b: Table A combinatorial examples, footnote b not given
T3 construct: C-terminally His-tagged full-length human CHK1 (FL-CHK1); 6xHis (C); made in house; host or cells: baculovirus/insect cells
T3 sequence (O14757 1-476): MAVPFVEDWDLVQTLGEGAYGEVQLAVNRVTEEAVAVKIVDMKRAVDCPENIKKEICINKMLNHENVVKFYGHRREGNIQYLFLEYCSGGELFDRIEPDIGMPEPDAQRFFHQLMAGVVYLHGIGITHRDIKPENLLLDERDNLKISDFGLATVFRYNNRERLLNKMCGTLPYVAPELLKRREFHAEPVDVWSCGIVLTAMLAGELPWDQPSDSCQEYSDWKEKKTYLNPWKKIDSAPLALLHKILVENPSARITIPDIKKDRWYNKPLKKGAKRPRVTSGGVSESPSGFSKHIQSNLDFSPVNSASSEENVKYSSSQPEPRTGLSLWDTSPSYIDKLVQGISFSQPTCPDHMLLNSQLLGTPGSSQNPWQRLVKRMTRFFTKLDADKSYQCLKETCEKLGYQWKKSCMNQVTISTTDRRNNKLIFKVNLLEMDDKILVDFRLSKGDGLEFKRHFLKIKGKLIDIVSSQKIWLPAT
From the text: CHK-1 Construct for Assay: C-terminally His-tagged full-length human CHK1 (FL-CHK1) was expressed using the baculovirus/insect cell system. It contains 6 histidine residues (6×His-tag) at the C-terminus of the 476 amino acid human CHK1. The protein was purified by conventional chromatographic techniques.
The production of ADP from ATP that accompanies phosphoryl transfer to the synthetic substrate peptide Syntide-2 ([…]) was coupled to oxidation of NADH using phosphoenolpyruvate (PEP) through the actions of pyruvate kinase (PK) and lactic dehydrogenase (LDH). The oxidation of NADH was monitored by following the decrease of absorbance at 340 nm (ε340=6.22 cm^−1 mM^−1) using a HP8452 spectrophotometer. Typical reaction solutions contained: […]; 0.15 mM NADH; 28 units of LDH/ml; 16 units of PK/ml; 3 mM DTT; 0.125 mM Syntide-2; 0.15 mM ATP; 25 mM MgCl2 in 50 mM TRIS, pH 7.5; and 400 mM NaCl. Assays were initiated with 10 nM of FL-CHK1. Ki values were determined by measuring initial enzyme activity in the presence of varying concentrations of test compounds. The data were analyzed using Enzyme Kinetic and Kaleidagraph software.

CCOC(=O)c1ccc(-c2csc(-c3sc(Nc4cc(OC)c(OC)c(OC)c4)nc3N)n2)cc1 [A(11), 4-[4′-Amino-2′-(3,4,5-trimethoxy-phenylamino)-[2,5′]bithiazolyl-4-yl]-benzoic acid ethyl ester]
inhibition at 100 µM ([1]; Table 2): 33%

CN(C)CCNS(=O)(=O)c1ccc(Nc2nc(N)c(-c3nc(C(=O)c4ccccc4)cs3)s2)cc1 [A(71), 4-(4′-Amino-4-benzoyl-[2,5′]bithiazolyl-2′-ylamino)-N-(2-dimethylamino-ethyl)-benzenesulfonamide]
Ki ([2]; Table 2): 29000 nM | Ki ([1]; Table 2): 190 µM

Nc1cccc(C(=O)c2csc(-c3sc(Nc4ccc(S(N)(=O)=O)cc4)nc3N)n2)c1 [A(72), 4-[4-Amino-4-(3-amino-benzoyl)-[2,5′]bithiazoyl-2′-ylamino]-benzenesulfonamide]
Ki ([2]; Table 2): 160 nM | inhibition at 5 µM ([1]; Table 2): 48%

Nc1cccc(-c2csc(-c3sc(Nc4ccc(S(N)(=O)=O)cc4)nc3N)n2)c1 [C(3)]
Ki ([2]; Table 2): 2700 nM | Ki ([1]; Table 2): 4.6 µM

Nc1nc(N)c(-c2nc(C(=O)c3ccccc3)cs2)s1 [E(4), (2′,4′-Diamino-[2,5′]bithiazolyl-4-yl)-phenyl-methanone]
Ki ([2]; Table 2): 8800 nM | Ki ([1]; Table 2): 21 µM

CC(=O)Nc1nc(N)c(-c2nc(C(=O)c3ccccc3)cs2)s1 [F(16), N-(4′-Amino-4-benzoyl-[2,5′]bithiazolyl-2′-yl)-acetamide]
Ki ([2]; Table 3): 480 nM | inhibition at 5 µM ([1]; Table 3): 35%

COc1cc(Nc2nc(N)c(-c3cccc(Br)n3)s2)cc(OC)c1OC [G(6), 5-(6-Bromo-pyridin-2-yl)-2-N-(3,4,5-trimethoxy-phenyl)-thiazole-2,4-diamine]
Ki ([1]; Table 2): 100 µM

Nc1nc(Nc2ccc(S(N)(=O)=O)cc2)sc1-c1nccn1Cc1ccc(Cl)cc1 [G(8), 4-{4-Amino-5-[1-(4-chloro-benzyl)-1H-imidazol-2-yl]-thiazol-2-ylamino}-benzenesulfonamide]
Ki ([2]; Table 2): 18000 nM | inhibition at 100 µM ([1]; Table 2): 31%

Nc1nc(Nc2ccc(S(N)(=O)=O)cc2)sc1-c1nc(O)c(-c2ccc(O)cc2)s1 [H(2), 4-[4′-Amino-4-hydroxy-5-(4-hydroxy-phenyl)-[2,5′]bithiazolyl-2′-yl-amino]-benzenesulfonamide]
Ki ([2]; Table 2): 10400 nM | Ki ([1]; Table 2): 11 µM

Nc1nc(Nc2ccc(S(N)(=O)=O)cc2)sc1-c1nc(O)c(-c2ccccc2O)s1 [H(4), 4-[4′-Amino-4-hydroxy-5-(2-hydroxy-phenyl)-[2,5′]bithiazoly-2′-ylamino]-benzenesulfonamide]
Ki ([2]; Table 2): 2600 nM | Ki ([1]; Table 2): 2.1 µM

Nc1nc(Nc2ccc(S(N)(=O)=O)cc2)sc1C1=NC2(O)OCCC2S1 (stereo not drawn) [H(5), 4-[4′-Amino-4-hydroxy-5-(2-hydroxy-ethyl)-3′H-1′-[2,5]bithiazolyl-2′-ylamino]-benzenesulfonamide]
CDK2 % inhibition @ 100 ([2]; Table 2, at 100 (printed 100 or 100 μM)): 29% @ | inhibition at 100 µM ([1]; Table 2): < 0%

COc1cc(Nc2nc(N)c(C3=N[C@H](Cc4ccccc4)CO3)s2)cc(OC)c1OC [I(2), R-5-(4-Benzyl-4,5-dihydro-oxazol-2-yl)-N^2-(3,4,5-trimethoxyl-phenyl)-thiazole-2,4-diamine]
inhibition at 100 µM ([1]; Table 2): < 0%

COc1cc(Nc2nc(N)c(C3=NC(C(C)OCc4ccccc4)CO3)s2)cc(OC)c1OC [I(4), 5-{(4R)-[(1R)-Benzyloxy-ethyl]-4,5-dihydro-oxazol-2-yl}-N^2-(3,4,5-trimethoxyl-phenyl)-thiazole-2,4-diamine]
inhibition at 100 µM ([1]; Table 2): < 0%

Nc1nc(Nc2ccc(S(N)(=O)=O)cc2)sc1-c1nc(C(=O)O)cs1 [N(1)]
inhibition at 1 µM [3]: 24% | inhibition at 25 µM ([4]; Table 3, at 25 μM): < 0% | Ki ([2]; Table 3): 2700 nM

COc1ccc(-c2csc(-c3sc(Nc4cc(OC)c(OC)c(OC)c4)nc3N)n2)cc1 [drawing 362]
CHK1^b [4]: 29.4 | CDK2^c [2]: 1.7

COc1cc(Nc2nc(N)c(-c3nc(-c4sc5ccc(Cl)cc5c4C)cs3)s2)cc2c1OCCO2 [drawing 363]
CHK1^b [4]: 38.1 | CDK2^c [2]: 12

COc1cc(Nc2nc(N)c(-c3nc(-c4ccccc4)cs3)s2)cc(OC)c1OC [drawing 372]
CHK1^b [4]: 14.1 | CDK2^c [2]: −1

COc1cc(Nc2nc(N)c(-c3nc(-c4ccc(F)cc4F)cs3)s2)cc(OC)c1OC [drawing 382]
CHK1^b [4]: 32.5 | CDK2^c [2]: −12.1
